The values below come from patent US8865675B2, “Compositions and methods for silencing apolipoprotein B” (Protiva Biotherapeutics, Inc., priority 2010, dated 2014).

The test system of one data set is liver ApoB mRNA. Kind of data set: Liver ApoB mRNA knockdown after IV SNALP administration, branched DNA (QuantiGene) assay relative to GAPDH. The format is in vivo, Balb/c mice. Conditions: for ApoB silencing activity compared to SNALP containing C2K when administered at the same dose: 0.033 or 0.05 mg/kg IV, 48 h (Table 6); for KD50 compared to SNALP containing the C2K benchmark cationic lipid: 48 h (FIG. 2, FIG. 3); for ApoB knockdown relative to PBS control (%): 1:57 SNALP with ApoB-10164 siRNA, ApoB:GAPD, 48 h, n = 3. Here is the method: For dose response studies, SNALP formulations were administered by IV injection at 0.01 mg/kg, 0.033 mg/kg, or 0.1 mg/kg into female Balb/c mice (n=3 per group). Liver ApoB mRNA levels were evaluated at 48 hours after SNALP administration by a branched DNA assay (QuantiGene assay) to assess ApoB mRNA relative to the housekeeping gene GAPDH.
Each SNALP formulation (6:1 L:D) was administered by intravenous (IV) injection at 0.1 mg/kg into female Balb/c mice (n=3 per group). Liver ApoB mRNA levels were evaluated at 48 hours after SNALP administration by a branched DNA assay (QuantiGene assay) to assess ApoB mRNA relative to the housekeeping gene GAPDH.
SNALP formulations were administered by IV injection at 0.05 mg/kg into female Balb/c mice (n=3 per group). Liver ApoB mRNA levels were evaluated at 48 hours after SNALP administration by a branched DNA assay (QuantiGene assay) to assess ApoB mRNA relative to the housekeeping gene GAPDH.
For these dose response studies, SNALP formulations were administered by IV injection at 0.05, 0.10, or 0.25 mg/kg for DLinDMA and at 0.01, 0.025, or 0.05 mg/kg for C2K or MC3 into female Balb/c mice (n=4 per group). Liver ApoB mRNA levels were evaluated at 48 hours after SNALP administration (Error bars=SD).
SNALP formulations were administered by IV injection at 0.033 mg/kg or at 0.05 mg/kg into Balb/c mice (n=3 per group). Liver ApoB mRNA levels were evaluated at 48 hours after SNALP administration by a branched DNA assay (QuantiGene assay) to assess ApoB mRNA relative to the housekeeping gene GAPDH.

A short description of data set [1]: Tolerability assessments of SNALP in mice (liver enzymes, body weight, neutrophil to lymphocyte ratio etc.). The format is in vivo.
Setting [2] is: 1:57 SNALP, 0.01, 0.033 or 0.1 mg/kg IV, female Balb/c mice, 48 h (FIG. 1, FIG. 3).
The mark [3] stands for this setting: 1:57 SNALP, 0.01, 0.033 or 0.1 mg/kg IV, female Balb/c mice.

As to `CC/C=C\CCCN(CCCN(C)C)C(=O)OC(CCCCCCC/C=C\C/C=C\CCCCC)CCCCCCCCC/C=C\C/C=C\CCCCC` (stereo not shown) [Compound 28, (6Z,9Z,28Z,31Z)-heptatriaconta-6,9,28,31-tetraen-18-yl 3-(dimethylamino)propyl((Z)-hept-4-enyl)carbamate], in the data set with liver ApoB mRNA (1:57 SNALP, Balb/c mice), the “ApoB silencing activity compared to SNALP containing C2K when administered at the same dose” value is “unexpectedly improved ApoB silencing activity”.

For `CCCCC/C=C\C/C=C\C/C=C\CCCCCC(CCCCC/C=C\C/C=C\C/C=C\CCCCC)OC(=O)CCCN(C)C` [Compound 8, γ-LenMC3], the “ApoB silencing activity compared to SNALP containing the C2K benchmark cationic lipid” value in the data set on liver ApoB mRNA (setting [2]) is reported as “improved ApoB silencing activity”. Besides, in the data set with liver ApoB mRNA (setting [3]), the “KD50 compared to SNALP containing the C2K benchmark cationic lipid” value is “substantially lower KD50 values”. Moreover, the “ApoB silencing activity compared to SNALP containing C2K when administered at the same dose” value in the data set on liver ApoB mRNA (1:57 SNALP, Balb/c mice) is reported as “unexpectedly improved ApoB silencing activity”.

In the case of “siApoB-10: APOB siRNA of sense strand SEQ ID NO: 4 and antisense strand SEQ ID NO: 11 with 2′OMe nucleotides (sense AGNGNCANCACACNNAANACC; antisense UAUUCAGUGUGAUGACACUUG; 2'OMe nucleotides, chemistry not fully specified)”, the “silencing activity of more highly 2′OMe-modified APOB siRNA relative to siApoB-8” value in the data set on liver ApoB mRNA (modifications increased from 7 in siApoB-8 to 13 in siApoB-10, 1:57 SNALP, Balb/c mice, 48 h (FIG. 6)) is “does not decrease activity”.

With `CCCCC/C=C\C/C=C\CCCCCCCCC(CCCCCCCC/C=C\C/C=C\CCCCC)OC(=O)CCCN(C)C` [Compound 1, (6Z,9Z,28Z,31Z)-heptatriaconta-6,9,28,31-tetraen-19-yl 4-(dimethylamino)butanoate], in the data set on liver ApoB mRNA (1:57 SNALP containing siApoB-8 or siApoB-10, female Balb/c mice, 48 h (FIG. 6)), the “potency versus the corresponding DLinDMA or C2K SNALP formulations, comparison of KD50 values” is recorded as “more potent”. For the same compound, in the data set on liver ApoB mRNA (setting [2]), the “ApoB silencing activity compared to SNALP containing the C2K benchmark cationic lipid” value is “improved ApoB silencing activity”. Also, the “KD50 compared to SNALP containing the C2K benchmark cationic lipid” value in the data set on liver ApoB mRNA (setting [3]) is recorded as “substantially lower KD50 values”. The “ApoB silencing activity compared to SNALP containing C2K when administered at the same dose” value in the data set with liver ApoB mRNA (1:57 SNALP, Balb/c mice) was “unexpectedly improved ApoB silencing activity”. In addition, the “potency in silencing ApoB expression in vivo compared to SNALP containing DLin-C2K-DMA (C2K) or DLinDMA” value with liver ApoB mRNA (1:57 lipid particle) was “unexpectedly more potent”.

“(6Z,9Z,28Z,31Z)-heptatriaconta-6,9,28,31-tetraen-18-yl 2-(dimethylamino)ethyl(ethyl)carbamate [Compound 29]”: in the data set with liver ApoB mRNA (0.05 mg/kg IV, Balb/c mice), the “ApoB knockdown relative to PBS control (%)” value is −59%.

Turning to `CC/C=C\C/C=C\C/C=C\CCCCCCCCC(CCCCCCCC/C=C\C/C=C\C/C=C\CC)OCCCCN(C)C` [Compound 35, 4-((3Z,6Z,9Z,28Z,31Z,34Z)-heptatriaconta-3,6,9,28,31,34-hexaen-19-yloxy)-N,N-dimethylbutan-1-amine], in the data set on liver ApoB mRNA (1:57 SNALP, Balb/c mice), the “ApoB silencing activity compared to SNALP containing C2K when administered at the same dose” value is on record as “unexpectedly improved ApoB silencing activity”.

For `CC/C=C\C/C=C\C/C=C\CCCCCCCCC(CCCCCCCC/C=C\C/C=C\C/C=C\CC)OC(=O)CCCN(C)C` [Compound 4, LenMC3], the “ApoB silencing activity compared to SNALP containing the C2K benchmark cationic lipid” value in the data set on liver ApoB mRNA (setting [2]) is recorded as “improved ApoB silencing activity”. In addition, the “KD50 compared to SNALP containing the C2K benchmark cationic lipid” value with liver ApoB mRNA (setting [3]) was “substantially lower KD50 values”. Also, the “ApoB silencing activity compared to SNALP containing C2K when administered at the same dose” value in the data set with liver ApoB mRNA (1:57 SNALP, Balb/c mice) is on record as “unexpectedly improved ApoB silencing activity”.

For `CCCCC/C=C\C/C=C\CCCCCCCCC(CCCCCCCC/C=C\C/C=C\CCCCC)OCCCN(C)C` [Compound 13, 3-((6Z,9Z,28Z,31Z)-heptatriaconta-6,9,28,31-tetraen-19-yloxy)-N,N-dimethylpropan-1-amine], the “ApoB silencing activity compared to SNALP containing the C2K benchmark cationic lipid” value in the data set on liver ApoB mRNA (1:57 SNALP, 0.05 mg/kg IV, female Balb/c mice, 48 h (FIG. 5)) is listed as “unexpectedly improved ApoB silencing activity”. Moreover, the “ApoB silencing activity compared to SNALP containing C2K when administered at the same dose” value with liver ApoB mRNA (1:57 SNALP, Balb/c mice) was “unexpectedly improved ApoB silencing activity”.

`CCCCC/C=C\C/C=C\CCCCCCCCC(CCCCCCCC/C=C\C/C=C\CCCCC)OCCCCN(C)C` [Compound 15, MC4 Ether]: in the data set on liver ApoB mRNA (1:57 SNALP, Balb/c mice), the “ApoB silencing activity compared to SNALP containing C2K when administered at the same dose” value is “unexpectedly improved ApoB silencing activity”.

Turning to `CCC1CC1CC1CC1CC1CC1CCCCCCCCC1(CCCCCCCCC2CC2CC2CC2CC2CC2CC)OCC(CCN(C)C)O1` (stereo not shown) [Compound 46, CP-DLen-C2K-DMA], in the data set on liver ApoB mRNA (1:57 SNALP, 0.01, 0.033 or 0.1 mg/kg IV, female Balb/c mice, 48 h (FIG. 3)), the “potency in silencing ApoB mRNA expression” value is reported as “considerable potency”. Moreover, in data set [1] (mouse, in vivo), the “body weight loss compared to mice administered SNALP containing C2K” value was “less body weight loss”, the “increase in liver enzyme levels compared to mice administered SNALP containing C2K” value is recorded as “lower increase in liver enzyme levels” and the “neutrophil to lymphocyte ratio compared to mice administered SNALP containing C2K” value is “more favorable neutrophil to lymphocyte ratio”. For the same compound, the “toxicity profile compared to SNALP containing C2K” value in data set [1] (various tolerability assessments in vivo) was “unexpectedly more favorable toxicity profile”.

As for `CCCCC/C=C\C/C=C\CCCCCCCCC(CCCCCCCC/C=C\C/C=C\CCCCC)OC(=O)N(C)CCCN(C)C` [Compound 10, MC3MC], the “ApoB knockdown relative to PBS control (%)” value in the data set on liver ApoB mRNA (0.033 mg/kg IV, Balb/c mice) is listed as −50%.

Turning to `CCCCC/C=C\C/C=C\CCCCCCCCCC(CCCCCCC/C=C\C/C=C\CCCCC)OC(=O)N(CCCCCC)CCCN(C)C` (stereo not shown) [Compound 27, (6Z,9Z,28Z,31Z)-heptatriaconta-6,9,28,31-tetraen-18-yl 3-(dimethylamino)propyl(hexyl)carbamate], the “ApoB silencing activity compared to SNALP containing C2K when administered at the same dose” value in the data set on liver ApoB mRNA (1:57 SNALP, Balb/c mice) is reported as “unexpectedly improved ApoB silencing activity”.
